In US11186612B2, “Substance P analog having progenitor cell or stem cell recruiting activity and method for progenitor cell or stem cell recruiting using the same” (AJOU UNIVERSITY INDUSTRY-ACADEMIC COOPERATION FOUNDATION, priority 2019, dated 2021):
Where no end group is shown, it is not given here.

Key:
[1] = test system: human-derived MSCs (hMSCs); experiment: In vivo migration of ICG-labeled hMSCs to injected Cx-HA hydrogel containing SP or SP1 (NIR fluorescence imaging); parameters: species or system nude mouse; settings: for fluorescence (recruited hMSC) at injected site: NIR-labeled Cx-HA hydrogel with 1 μg/mL peptide injected in one side of nude mouse, hMSCs via caudal vein, control Cx-HA no fluorescence
Experimental: Each of the NIR-HA-TET and NIR-HA-TCO, which were prepared in Example 3-1, was dissolved in 2% physiological saline to have a volume of 20 mg/mL, thereby preparing an aqueous solution, and 1 μg/mL of SP having an amino acid sequence of SEQ ID NO: 1 or SP1 having an amino acid sequence of SEQ ID NO: 2 was added to each solution. After 1-hour stirring, a hyaluronic acid hydrogel solution containing a stem cell recruiting factor was obtained by mixing the mixed solution prepared by stirring each of the solutions using a dual syringe.
NIR-labeled Cx-HA was injected into one side of a nude mouse, and NIR-labeled Cx-HA containing a stem cell recruiting factor was injected into the other side thereof, as shown in Table 3.
To visually confirm the extent of stem cell recruiting of SP1 in the present invention, hMCSs were labeled with indocyanine green and injected into a mouse caudal vein.
First, an indocyanine green (ICG) solution was prepared by dissolving 2 mg of ICG in 200 μL of DMSO, and mixing the resulting solution with 800 μL of a culture medium (DMEM (low-glucose)+10% FBS+1% penicillin-streptomycin). 10 μL of a 10 mg/mL protamine solution, 600 μL of the ICG solution and 600 μL of MEM-α were mixed, and gently stirred for 5 minutes. Afterward, the medium was removed from the flask in which hMSCs were cultured, replaced with 10 mL of a serum-free DMEM (low-glucose) medium, and then incubated for 1 hour at 37° C. under a 5% CO2 condition by adding a protamine/ICG solution.
Subsequently, the medium was removed, and the cells were washed with 10 mL PBS and treated with trypsin, thereby obtaining hMSCs. The hMSCs were prepared to be 1×10^6 cells/100 μL, and […] was injected into the caudal veins of nude mice using a […] syringe (FIG. 3). NIR fluorescence imaging was performed at a predetermined time using FOBI (NeoScience, Suwon, Korea) at 730 nm under conditions of an exposure of 2000 ms and a gain of 5.
To confirm the extent of promotion of in vivo hMSC migration by SP1 in the present invention, the hMSC-injected nude mice prepared in Example 4 were subjected to NIR fluorescence imaging using FOBI (NeoScience, Suwon, Korea) at 730 nm under conditions of an exposure of 2000 ms and a gain of 5.

[2] = test system: human-derived MSCs (hMSCs); experiment: Stem cell migration evaluation ex vivo (24-well Transwell plate, PKH 26-labeled hMSCs); type: cell-based; settings: 1 μg/mL in DMEM + 1% FBS in bottom well, FIG. 2; for stem cell migration compared with the control: hMSCs in upper chamber
Experimental: In the present invention, to compare the stem cell recruiting activities of SP and the SP1 of the present invention, stem cell migration was evaluated in an ex vivo environment.
First, human-derived MSCs (hMSCs) were labeled with a PKH 26 dye (Sigma, USA), and 5×10^4 cells were put into an upper chamber (8.0 μm pore size) of a 24-well Transwell plate (SPL, Korea). After the hMSCs were cultured in the upper chamber for 48 hours using a serum-free DMEM (Gibco, USA), a medium prepared under the following conditions in Table 2 was added into a bottom well, and then the medium was replaced with a fresh one every third day, followed by observing hMSCs in the bottom well using a fluorescence microscope.

| Sequence | stem cell recruiting activity maintenance time ([1]; Cx-HA hydrogel 1 μg/mL peptide, nude mouse, FIG. 6, compared with conventional SP) | stem cell recruiting activity, comparing FIGS. 4 (SP) and 5 (SP1) ([1]; Cx-HA hydrogel 1 μg/mL peptide, nude mouse, NIR imaging over time, compared with SP) | amount of stem cells moved to the injected site, quantified (FIG. 6): stem cell recruiting activity ([1]; Cx-HA hydrogel 1 μg/mL peptide, nude mouse, compared with conventional SP) | fluorescence (recruited hMSC) at injected site [1] | number of moved stem cells compared with the SP-treated group [2] | stem cell migration compared with the control [2] |
| --- | --- | --- | --- | --- | --- | --- |
| RISPQQRDALA (SP1) | longer | higher stem cell recruiting activity | higher stem cell recruiting activity | fluorescence was observed | high | stem cells moved |
| RPKPQQFFGLM (RPKPQQFFGLM-NH2) [SP, neuropeptide of 11 amino acids (Arg-Pro-Lys-Pro-Gln-Gln-Phe-Phe-Gly-Leu-Met-NH2), endogenous NKR1 ligand, reference compound] |  |  |  | fluorescence was observed |  | stem cells moved |
